Assay results from the NIST ThermoML archive (doi:10.1021/je500083n).

Assay: xn = mol fraction of the nth substance listed
Conditions: Gas, Vibrating wire viscometry

C [methane] + O=C=O
x1 = 0.57
Conditions	viscosity [mPa·s]
280.17 K, 6410 kPa	0.01457
280.2 K, 5490 kPa	0.01408
280.22 K, 4480 kPa	0.01364
280.24 K, 3500 kPa	0.01338
280.31 K, 2510 kPa	0.0131
280.32 K, 1510 kPa	0.01303
303.18 K, 5440 kPa	0.01477
303.18 K, 6330 kPa	0.01523
303.19 K, 3500 kPa	0.01411
303.19 K, 4500 kPa	0.0144
303.2 K, 1500 kPa	0.01381
303.2 K, 2500 kPa	0.01387
328.13 K, 6450 kPa	0.01573
328.14 K, 3490 kPa	0.01477
328.14 K, 4490 kPa	0.01504
328.14 K, 5500 kPa	0.01538
328.15 K, 2500 kPa	0.01453
328.16 K, 1510 kPa	0.01447

C [methane] + CCC
x2 = 0.0548
Conditions	viscosity [mPa·s]
280.16 K, 610 kPa	0.01039
280.16 K, 1550 kPa	0.01051
280.17 K, 3150 kPa	0.01083
280.17 K, 4970 kPa	0.01143
280.18 K, 5880 kPa	0.01179
280.2 K, 6560 kPa	0.01211
280.21 K, 6970 kPa	0.0123
298.18 K, 870 kPa	0.01083
298.18 K, 1450 kPa	0.01096
298.19 K, 4110 kPa	0.01163
298.2 K, 2650 kPa	0.01124
298.2 K, 5430 kPa	0.01211
298.22 K, 6340 kPa	0.01244
298.22 K, 6700 kPa	0.01259
